Test results reported in ChEMBL document CHEMBL1201862, “PubChem BioAssay data set” (2004).
The source made the active and inactive calls.

What was measured:
[1] = target: T1, Voltage-gated N-type calcium channel alpha-1B subunit/Amyloid beta A4 precursor protein-binding family A member 1 (Homo sapiens, UniProt Q00975+Q02410); assay type: protein assay
[2] = viability loss in HeLa cells – cytotoxicity control for MgcRacGAP inhibitor project, dose response (AID 624300); assay type: functional
[3] = target: T2, Rac GTPase-activating protein 1 (Homo sapiens, UniProt Q9H0H5); experiment: blockers of MgcRacGAP-driven Rac1 GTP hydrolysis – biochemical, ADP Hunter fluorescence, primary and confirmatory, confirmation (AID 624330); assay type: functional
T2 sequence (Q9H0H5 whole entry): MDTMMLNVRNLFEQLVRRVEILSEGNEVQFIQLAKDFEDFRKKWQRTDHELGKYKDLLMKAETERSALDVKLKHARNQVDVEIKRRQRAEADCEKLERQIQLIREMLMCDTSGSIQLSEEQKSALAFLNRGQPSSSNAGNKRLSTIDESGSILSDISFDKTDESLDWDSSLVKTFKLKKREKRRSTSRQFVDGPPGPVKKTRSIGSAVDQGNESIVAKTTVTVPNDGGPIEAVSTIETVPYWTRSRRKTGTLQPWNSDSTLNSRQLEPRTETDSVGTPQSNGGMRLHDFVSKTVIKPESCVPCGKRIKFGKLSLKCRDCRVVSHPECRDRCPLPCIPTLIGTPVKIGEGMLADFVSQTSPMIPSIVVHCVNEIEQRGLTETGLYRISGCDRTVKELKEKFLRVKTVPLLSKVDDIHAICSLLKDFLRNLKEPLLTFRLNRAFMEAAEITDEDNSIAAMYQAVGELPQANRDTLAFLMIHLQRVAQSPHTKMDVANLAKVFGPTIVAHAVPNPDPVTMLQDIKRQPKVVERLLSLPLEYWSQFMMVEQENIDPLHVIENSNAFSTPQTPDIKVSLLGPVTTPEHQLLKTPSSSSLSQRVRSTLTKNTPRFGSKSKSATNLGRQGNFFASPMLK

H9c2 = experiment: cells; assay type: functional, cell-based; settings: Rattus norvegicus, H9c2, Myocardium;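 further: confirmatory concentration-response retest of ultra-high-throughput screening hits for modulation of myocardial damage; cell death induced by hydrogen peroxide oxidative stress; compound pretreatment for 60 min then peroxide exposure for 2 h; potency is for protecting the cells against peroxide damage rather than for killing them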
[4] = target: T1, Voltage-gated N-type calcium channel alpha-1B subunit/Amyloid beta A4 precursor protein-binding family A member 1; assay type: protein assay; remark: listed apart in the source
[5] = target: Nucleotide-binding oligomerization domain-containing protein 2 (Homo sapiens, UniProt Q9HC29); experiment: inhibition of NOD2-driven NF-kB reporter – cell-based, luminescence, uHTS, HEK293 (AID 1566); assay type: functional
[6] = target: T3, Microphthalmia-associated transcription factor (Homo sapiens, UniProt O75030); experiment: reducers of TRPM1 reporter luminescence, concentration series – cell-based, SK-MEL-5, cherry-picked, set 3, MITF inhibitor project, dose response (AID 493073); assay type: functional;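 further: SK-MEL-5 melanoma cells with luciferase driven by the MITF target TRPM1 promoter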
T3 sequence (O75030 whole entry): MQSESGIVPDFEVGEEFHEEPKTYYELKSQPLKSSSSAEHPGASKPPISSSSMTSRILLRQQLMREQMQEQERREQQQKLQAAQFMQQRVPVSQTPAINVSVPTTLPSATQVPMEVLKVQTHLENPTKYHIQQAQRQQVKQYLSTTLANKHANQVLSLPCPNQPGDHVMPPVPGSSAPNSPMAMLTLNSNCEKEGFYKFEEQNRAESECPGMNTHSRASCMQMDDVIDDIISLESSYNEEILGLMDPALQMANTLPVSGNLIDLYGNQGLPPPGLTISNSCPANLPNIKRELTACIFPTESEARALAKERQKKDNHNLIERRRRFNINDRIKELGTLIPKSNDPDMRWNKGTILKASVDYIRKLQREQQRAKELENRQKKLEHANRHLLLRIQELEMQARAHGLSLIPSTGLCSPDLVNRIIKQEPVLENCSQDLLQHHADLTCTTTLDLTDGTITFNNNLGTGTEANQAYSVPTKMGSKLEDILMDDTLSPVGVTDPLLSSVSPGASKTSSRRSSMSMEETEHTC

HEK293 [7] = experiment: inhibition of NOD1-driven NF-kB reporter – cell-based, luminescence, uHTS, primary screen (AID 1578); assay type: functional; settings: Homo sapiens
HEK293 [8] = experiment: cells; assay type: functional, cell-based; settings: Homo sapiens
HEK293 [9] = experiment: cells; assay type: functional, cell-based; settings: Homo sapiens; remark: listed apart in the source
HEK293 [10] = experiment: NOD2 signaling inhibitors in MDP-stimulated cells, cell-based, uHTS, luminescence (AID 2001); assay type: functional; settings: Homo sapiens
HEK293 [11] = experiment: cells; assay type: functional, cell-based; settings: Homo sapiens; remark: listed apart in the source
[12] = Luminescence Cell-Based Dose Retest to Confirm Inhibitors of Cancer Stem Cells. [Related pubchem assays (depositor defined):AID2717, AID2721]; assay type: functional; settings: Homo sapiens
[13] = target: Luciferin 4-monooxygenase (Photinus pyralis, UniProt P08659); experiment: inhibition of purified Photinus pyralis luciferase – biochemical, luminescence, dose response (AID 1891)
[14] = target: T4, High affinity choline transporter 1 (Homo sapiens, UniProt Q9GZV3); experiment: human choline transporter blockers, potency – cell-based, 10-point CRC, membrane potential dye, dose response (AID 588401); assay type: functional;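 further: membrane potential dye fluorescence of choline-evoked depolarization via CHT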
T4 sequence (Q9GZV3 whole entry): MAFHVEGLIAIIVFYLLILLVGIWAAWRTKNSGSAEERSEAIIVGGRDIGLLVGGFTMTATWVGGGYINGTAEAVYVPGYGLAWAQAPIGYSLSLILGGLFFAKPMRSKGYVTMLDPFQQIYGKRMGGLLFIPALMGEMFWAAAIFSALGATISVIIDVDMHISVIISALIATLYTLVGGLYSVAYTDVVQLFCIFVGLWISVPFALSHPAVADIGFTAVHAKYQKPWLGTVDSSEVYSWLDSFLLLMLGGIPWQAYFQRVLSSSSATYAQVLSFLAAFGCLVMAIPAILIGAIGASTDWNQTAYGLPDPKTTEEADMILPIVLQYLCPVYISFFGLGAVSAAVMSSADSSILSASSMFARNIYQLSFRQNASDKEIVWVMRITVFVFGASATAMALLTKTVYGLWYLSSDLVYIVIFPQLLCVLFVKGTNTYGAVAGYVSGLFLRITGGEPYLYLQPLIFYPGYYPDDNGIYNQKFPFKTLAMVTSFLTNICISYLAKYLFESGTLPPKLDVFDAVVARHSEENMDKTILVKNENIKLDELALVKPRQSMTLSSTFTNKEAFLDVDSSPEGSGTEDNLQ

[15] = Luminescence Cell-Based Dose Confirmation HTS to Identify Inhibitors of Platelet Dense Granule Release. [Related pubchem assays: 1663 (Primary HTS), 1678 (Summary of Project)]; assay type: functional
[16] = target: T4, High affinity choline transporter 1; experiment: human choline transporter blockers, potency – cell-based, 5-point CRC, membrane potential dye, dose response (AID 504840); assay type: functional
[17] = target: T5, Eukaryotic translation initiation factor 2-alpha kinase 3 (Homo sapiens, UniProt Q9NZJ5); experiment: Dose response cell-based high-throughput screening assay to measure PERK inhibition. [Related pubchem assays: 1416 ]; assay type: functional
T5 sequence (Q9NZJ5 whole entry): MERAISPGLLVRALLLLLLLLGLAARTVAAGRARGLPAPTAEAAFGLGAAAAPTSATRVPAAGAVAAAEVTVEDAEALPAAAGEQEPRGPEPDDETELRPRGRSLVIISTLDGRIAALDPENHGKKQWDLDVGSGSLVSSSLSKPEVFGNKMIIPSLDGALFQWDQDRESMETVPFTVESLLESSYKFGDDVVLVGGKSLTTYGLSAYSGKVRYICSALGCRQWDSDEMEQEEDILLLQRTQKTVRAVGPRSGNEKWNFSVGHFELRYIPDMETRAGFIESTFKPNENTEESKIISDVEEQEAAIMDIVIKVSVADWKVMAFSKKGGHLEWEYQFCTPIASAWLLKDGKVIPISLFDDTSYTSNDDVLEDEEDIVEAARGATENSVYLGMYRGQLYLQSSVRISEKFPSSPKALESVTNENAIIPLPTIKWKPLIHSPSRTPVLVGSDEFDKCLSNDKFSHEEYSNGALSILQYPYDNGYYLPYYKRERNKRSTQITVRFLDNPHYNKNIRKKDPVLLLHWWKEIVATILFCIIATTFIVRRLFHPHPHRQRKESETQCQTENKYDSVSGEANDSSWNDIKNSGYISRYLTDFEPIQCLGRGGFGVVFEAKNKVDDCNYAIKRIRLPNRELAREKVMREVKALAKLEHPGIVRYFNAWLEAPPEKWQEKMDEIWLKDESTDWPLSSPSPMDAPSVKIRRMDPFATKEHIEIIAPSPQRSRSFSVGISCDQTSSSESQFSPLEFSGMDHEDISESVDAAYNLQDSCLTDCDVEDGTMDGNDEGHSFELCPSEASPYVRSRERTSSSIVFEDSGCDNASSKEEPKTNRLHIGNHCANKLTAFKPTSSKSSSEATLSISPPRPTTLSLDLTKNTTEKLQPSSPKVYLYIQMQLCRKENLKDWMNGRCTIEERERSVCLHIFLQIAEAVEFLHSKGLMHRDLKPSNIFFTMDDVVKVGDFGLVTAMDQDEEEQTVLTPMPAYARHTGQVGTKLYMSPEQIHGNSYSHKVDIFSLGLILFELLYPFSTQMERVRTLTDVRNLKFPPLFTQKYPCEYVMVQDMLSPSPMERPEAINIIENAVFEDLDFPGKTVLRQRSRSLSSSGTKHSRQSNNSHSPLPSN

[18] = target: T5, Eukaryotic translation initiation factor 2-alpha kinase 3; experiment: Counterscreen assay for PERK inhibitors: Dose response cell-based high throughput screening assay to measure inhibition of PERK at 6 hours. [Related pubchem assays: 1522, 1416 ]; assay type: functional
[19] = viability of uninfected HEp-2 cells – cell-based, HTS, cytotoxicity control for RSV inhibitor project, dose response (AID 2410); assay type: functional; settings: human respiratory syncytial virus
[20] = target: T6, Short transient receptor potential channel 4 (Mus musculus, UniProt Q9QUQ5); experiment: calcium entry via TRPC4 opening agents – cell-based, HEK293 TRPC4/mu-opioid, Fluo-4 calcium, dose response (AID 434937); assay type: functional
T6 sequence (Q9QUQ5 whole entry): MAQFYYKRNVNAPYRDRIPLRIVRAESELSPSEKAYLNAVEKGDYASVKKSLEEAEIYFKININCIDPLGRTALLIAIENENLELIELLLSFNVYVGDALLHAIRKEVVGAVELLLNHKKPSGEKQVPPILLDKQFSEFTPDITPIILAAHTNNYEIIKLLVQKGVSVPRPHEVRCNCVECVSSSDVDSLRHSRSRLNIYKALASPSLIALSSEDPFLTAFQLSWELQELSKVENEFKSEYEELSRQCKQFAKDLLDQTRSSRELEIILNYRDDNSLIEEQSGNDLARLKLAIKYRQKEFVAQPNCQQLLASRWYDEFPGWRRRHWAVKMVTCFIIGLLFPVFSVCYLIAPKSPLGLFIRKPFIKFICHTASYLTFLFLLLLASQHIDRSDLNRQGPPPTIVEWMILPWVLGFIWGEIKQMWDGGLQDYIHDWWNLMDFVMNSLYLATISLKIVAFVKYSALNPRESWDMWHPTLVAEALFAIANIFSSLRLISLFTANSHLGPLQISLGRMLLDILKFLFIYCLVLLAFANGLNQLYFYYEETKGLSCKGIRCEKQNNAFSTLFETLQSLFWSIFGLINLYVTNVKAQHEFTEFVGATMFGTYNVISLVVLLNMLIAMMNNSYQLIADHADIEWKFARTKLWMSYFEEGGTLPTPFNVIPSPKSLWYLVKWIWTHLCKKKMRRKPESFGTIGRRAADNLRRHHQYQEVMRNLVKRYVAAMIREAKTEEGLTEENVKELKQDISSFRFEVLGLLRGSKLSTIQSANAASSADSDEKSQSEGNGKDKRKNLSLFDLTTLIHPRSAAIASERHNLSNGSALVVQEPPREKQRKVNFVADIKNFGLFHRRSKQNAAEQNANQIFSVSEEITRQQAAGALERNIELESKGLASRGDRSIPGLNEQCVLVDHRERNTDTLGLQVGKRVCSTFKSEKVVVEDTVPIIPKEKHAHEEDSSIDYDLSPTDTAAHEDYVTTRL

T1 sequence (Q00975 whole entry): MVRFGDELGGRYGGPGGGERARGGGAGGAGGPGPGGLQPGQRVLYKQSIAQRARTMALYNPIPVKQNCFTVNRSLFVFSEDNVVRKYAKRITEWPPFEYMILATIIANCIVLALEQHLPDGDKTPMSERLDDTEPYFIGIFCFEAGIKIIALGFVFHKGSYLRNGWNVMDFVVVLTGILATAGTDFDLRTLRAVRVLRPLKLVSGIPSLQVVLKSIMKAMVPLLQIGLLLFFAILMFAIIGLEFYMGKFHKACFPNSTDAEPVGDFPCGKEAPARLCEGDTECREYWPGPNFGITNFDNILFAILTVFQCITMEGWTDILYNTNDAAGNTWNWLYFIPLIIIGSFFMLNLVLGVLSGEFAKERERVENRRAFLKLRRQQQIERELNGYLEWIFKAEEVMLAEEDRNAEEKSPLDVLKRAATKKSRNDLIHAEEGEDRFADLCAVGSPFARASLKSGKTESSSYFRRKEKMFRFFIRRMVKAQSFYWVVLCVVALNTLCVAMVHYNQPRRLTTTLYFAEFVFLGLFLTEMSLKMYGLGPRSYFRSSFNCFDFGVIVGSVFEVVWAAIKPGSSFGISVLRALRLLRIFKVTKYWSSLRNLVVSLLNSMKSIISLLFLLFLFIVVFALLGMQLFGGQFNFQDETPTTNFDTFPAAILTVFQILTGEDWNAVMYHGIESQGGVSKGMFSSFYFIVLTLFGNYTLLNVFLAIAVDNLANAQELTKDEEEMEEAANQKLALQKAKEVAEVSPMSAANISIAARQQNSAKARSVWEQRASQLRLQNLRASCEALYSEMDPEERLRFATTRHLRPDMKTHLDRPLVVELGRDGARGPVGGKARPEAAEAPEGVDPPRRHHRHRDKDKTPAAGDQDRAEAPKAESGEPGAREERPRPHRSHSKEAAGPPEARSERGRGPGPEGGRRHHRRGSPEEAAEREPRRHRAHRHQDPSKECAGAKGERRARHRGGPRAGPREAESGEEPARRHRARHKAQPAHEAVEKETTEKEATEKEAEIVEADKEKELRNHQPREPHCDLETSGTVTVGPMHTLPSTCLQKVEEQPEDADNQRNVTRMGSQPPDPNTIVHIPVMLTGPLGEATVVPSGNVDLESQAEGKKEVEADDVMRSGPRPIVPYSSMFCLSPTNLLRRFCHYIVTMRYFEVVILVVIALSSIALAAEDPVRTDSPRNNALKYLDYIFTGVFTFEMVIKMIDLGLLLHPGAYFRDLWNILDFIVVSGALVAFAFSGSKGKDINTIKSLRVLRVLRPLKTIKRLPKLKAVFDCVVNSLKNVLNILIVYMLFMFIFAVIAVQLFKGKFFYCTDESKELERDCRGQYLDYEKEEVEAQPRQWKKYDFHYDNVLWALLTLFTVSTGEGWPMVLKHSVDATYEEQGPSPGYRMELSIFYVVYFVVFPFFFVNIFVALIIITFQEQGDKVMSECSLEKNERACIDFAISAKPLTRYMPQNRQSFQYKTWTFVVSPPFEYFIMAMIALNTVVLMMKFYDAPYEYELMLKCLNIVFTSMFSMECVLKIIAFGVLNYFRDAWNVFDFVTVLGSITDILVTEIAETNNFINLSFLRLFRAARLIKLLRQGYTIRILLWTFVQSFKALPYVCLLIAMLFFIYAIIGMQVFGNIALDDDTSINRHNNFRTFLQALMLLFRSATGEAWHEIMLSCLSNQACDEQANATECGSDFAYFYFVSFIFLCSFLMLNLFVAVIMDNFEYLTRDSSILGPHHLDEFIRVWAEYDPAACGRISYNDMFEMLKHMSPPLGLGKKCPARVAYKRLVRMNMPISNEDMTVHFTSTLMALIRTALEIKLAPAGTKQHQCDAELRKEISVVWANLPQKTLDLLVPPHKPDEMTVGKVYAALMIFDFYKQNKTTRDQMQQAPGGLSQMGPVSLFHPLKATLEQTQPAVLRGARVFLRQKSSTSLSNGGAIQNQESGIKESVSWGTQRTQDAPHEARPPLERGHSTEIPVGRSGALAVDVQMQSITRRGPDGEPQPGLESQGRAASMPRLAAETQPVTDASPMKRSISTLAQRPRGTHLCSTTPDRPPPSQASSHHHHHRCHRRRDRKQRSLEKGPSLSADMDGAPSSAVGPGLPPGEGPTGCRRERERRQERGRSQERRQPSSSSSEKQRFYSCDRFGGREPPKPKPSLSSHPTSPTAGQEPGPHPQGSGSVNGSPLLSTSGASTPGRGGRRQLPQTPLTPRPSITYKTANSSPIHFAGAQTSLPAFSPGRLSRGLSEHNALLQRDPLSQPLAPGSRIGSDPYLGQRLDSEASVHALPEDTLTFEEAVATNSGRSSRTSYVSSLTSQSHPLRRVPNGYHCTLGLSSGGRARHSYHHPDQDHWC
T1 sequence (Q02410 whole entry): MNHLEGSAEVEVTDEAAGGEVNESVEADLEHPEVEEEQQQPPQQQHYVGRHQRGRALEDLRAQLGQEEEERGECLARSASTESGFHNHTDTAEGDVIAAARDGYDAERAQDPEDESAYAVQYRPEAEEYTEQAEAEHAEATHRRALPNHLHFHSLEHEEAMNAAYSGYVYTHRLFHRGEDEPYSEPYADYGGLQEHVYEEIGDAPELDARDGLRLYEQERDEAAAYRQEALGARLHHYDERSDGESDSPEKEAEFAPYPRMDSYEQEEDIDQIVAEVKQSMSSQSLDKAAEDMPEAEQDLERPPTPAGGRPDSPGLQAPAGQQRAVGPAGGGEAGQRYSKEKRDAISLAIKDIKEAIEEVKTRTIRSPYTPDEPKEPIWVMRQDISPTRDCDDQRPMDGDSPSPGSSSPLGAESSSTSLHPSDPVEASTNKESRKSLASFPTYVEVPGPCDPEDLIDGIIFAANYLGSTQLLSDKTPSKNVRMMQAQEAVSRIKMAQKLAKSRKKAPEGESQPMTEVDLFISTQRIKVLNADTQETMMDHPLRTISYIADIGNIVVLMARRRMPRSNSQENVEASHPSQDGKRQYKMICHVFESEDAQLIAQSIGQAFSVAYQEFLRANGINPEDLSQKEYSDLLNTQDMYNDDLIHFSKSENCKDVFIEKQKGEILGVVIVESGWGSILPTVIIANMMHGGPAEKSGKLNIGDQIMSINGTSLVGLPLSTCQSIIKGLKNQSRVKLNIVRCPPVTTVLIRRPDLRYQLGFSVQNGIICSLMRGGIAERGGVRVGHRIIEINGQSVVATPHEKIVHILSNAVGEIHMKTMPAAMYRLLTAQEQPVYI
Sequence of Nucleotide-binding oligomerization domain-containing protein 2 (Q9HC29 whole entry, the tested form may be a part): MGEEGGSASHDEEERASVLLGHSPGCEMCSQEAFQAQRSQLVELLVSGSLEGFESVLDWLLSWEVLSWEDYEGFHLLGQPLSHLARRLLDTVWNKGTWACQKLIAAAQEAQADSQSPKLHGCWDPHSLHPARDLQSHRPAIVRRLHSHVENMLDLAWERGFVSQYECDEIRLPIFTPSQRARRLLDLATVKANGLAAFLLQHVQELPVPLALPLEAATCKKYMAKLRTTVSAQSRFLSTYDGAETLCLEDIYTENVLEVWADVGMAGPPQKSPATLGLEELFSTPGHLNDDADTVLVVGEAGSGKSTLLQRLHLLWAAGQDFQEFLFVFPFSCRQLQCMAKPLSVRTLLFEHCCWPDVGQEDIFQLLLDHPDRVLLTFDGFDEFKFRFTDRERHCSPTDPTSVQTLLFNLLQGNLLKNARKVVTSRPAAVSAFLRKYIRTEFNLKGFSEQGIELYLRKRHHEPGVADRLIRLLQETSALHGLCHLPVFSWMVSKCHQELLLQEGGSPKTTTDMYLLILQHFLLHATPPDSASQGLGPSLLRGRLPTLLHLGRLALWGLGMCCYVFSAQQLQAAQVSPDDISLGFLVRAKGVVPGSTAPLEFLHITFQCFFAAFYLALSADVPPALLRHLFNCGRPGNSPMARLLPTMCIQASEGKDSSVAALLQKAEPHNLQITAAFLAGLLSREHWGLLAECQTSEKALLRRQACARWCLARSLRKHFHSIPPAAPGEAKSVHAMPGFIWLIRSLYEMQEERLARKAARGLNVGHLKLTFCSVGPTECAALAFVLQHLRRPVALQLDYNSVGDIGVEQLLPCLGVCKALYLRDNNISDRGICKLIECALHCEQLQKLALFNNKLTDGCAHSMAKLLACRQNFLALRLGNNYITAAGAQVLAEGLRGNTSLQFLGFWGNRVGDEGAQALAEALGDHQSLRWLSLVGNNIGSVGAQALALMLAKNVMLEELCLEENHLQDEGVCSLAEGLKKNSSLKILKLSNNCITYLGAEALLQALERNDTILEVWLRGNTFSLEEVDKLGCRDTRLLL
Sequence of Luciferin 4-monooxygenase (P08659 whole entry): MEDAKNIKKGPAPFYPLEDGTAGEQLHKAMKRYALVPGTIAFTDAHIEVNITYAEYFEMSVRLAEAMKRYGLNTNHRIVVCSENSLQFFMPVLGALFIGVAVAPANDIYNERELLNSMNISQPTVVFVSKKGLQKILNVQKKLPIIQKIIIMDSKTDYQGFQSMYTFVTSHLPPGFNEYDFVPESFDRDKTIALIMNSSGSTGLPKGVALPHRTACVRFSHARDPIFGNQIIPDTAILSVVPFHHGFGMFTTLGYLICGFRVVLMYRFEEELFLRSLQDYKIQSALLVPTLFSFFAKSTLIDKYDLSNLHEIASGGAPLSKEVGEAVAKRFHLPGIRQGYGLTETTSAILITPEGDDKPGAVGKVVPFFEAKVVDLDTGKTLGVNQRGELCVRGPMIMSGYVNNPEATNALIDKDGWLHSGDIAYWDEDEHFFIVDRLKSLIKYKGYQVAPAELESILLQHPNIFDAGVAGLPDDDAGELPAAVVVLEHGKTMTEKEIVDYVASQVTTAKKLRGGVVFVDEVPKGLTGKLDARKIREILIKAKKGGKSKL

Compound	IC50 (H9c2)	EC50 [5]	EC50 (HEK293 [7])	IC50 (HEK293 [8])	IC50 (HEK293 [9])	IC50 (HEK293 [10])	IC50 (HEK293 [11])	EC50 [20]	other results
COc1cc(/C=C/c2nc3ccccc3c(=O)n2-c2ccccc2O)ccc1O	9.09 µM (active)								IC50 [1]: > 50 µM (inactive); CC50 [2]: 94 µM (active); IC50 [3]: 40.6 µM (active); IC50 [4]: > 56.8 µM (not active)
COc1ccc2cc3cc(C(=O)NCCc4ccc(OC)c(OC)c4)oc3nc2c1	> 79 µM (inactive)	7.83 µM (active)	9.01 µM (active)	4.8 µM (active)	18.9 µM (active)	5.18 µM (active)	> 20 µM (inactive)		AC50 [6]: 16.2 µM (active)
COc1cc(Br)cc(/C=C/c2ccc3cccc(O)c3n2)c1O		> 20 µM (inactive)	5.78 µM (active)	8.18 µM (active)	> 20 µM (inactive)	6.96 µM (inactive)	> 20 µM (inactive)		AC50 [12]: 1.44 µM (active)
Nc1nc(Cl)nc2c1ncn2[C@@H]1O[C@H](CO)[C@@H](O)[C@H]1O									EC50 [13]: > 112 µM (not active); IC50 [14]: 0.336 µM (active); EC50 [15]: < 0.701 µM (active); IC50 [16]: 0.74 µM (active); EC50 [17]: > 55.7 µM (not active); EC50 [18]: > 55.7 µM (not active)
CC(C)(C)c1cc(O)c(C(C)(C)C)cc1O								0.376 µM (active)	CC50 [19]: > 50 µM (active); IC50 (cells): 37.2 µM (active)
CCN1CCN(c2ccc(S(=O)(=O)N3CCCCC3)cc2NC(=O)c2cccc(C)c2[N+](=O)[O-])CC1								2.99 µM (active)	
